Data reported in ChEMBL document CHEMBL1201862, “PubChem BioAssay data set” (2004).
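Interpolation was linear, between the two tested concentrations surrounding the appropriate level; five concentrations were tested over 48 hours in 96-well plates. At the GI50, growth is halved.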 Calls of active or inactive are those of the source. Cut-off read from the data, not from the text of the source: active = GI50 up to about 1.1 µM and inactive = higher.

Experiments:
Test in all cases: NCI tumour cell line growth inhibition, 48 h
[1] = system: KM12
[2] = system: A498
[3] = system: SNB-19
[4] = system: LOX IMVI
[5] = system: TK-10
[6] = system: IGROV-1
[7] = system: ACHN
[8] = system: SN12C
[9] = system: Hs-578T
[10] = system: CAKI-1
[11] = system: UACC-257
[12] = system: OVCAR-5
[13] = system: NCI/ADR-RES
[14] = system: NCI-H23
[15] = system: HCT-116
[16] = system: NCI-H522
[17] = system: OVCAR-3

Measured: GI50

Clc1c2nc3ccccc3c-2[nH]c2ccccc12
inactive: [1] 3.94 µM | [2] 43 µM | [3] > 100 µM | [4] 11.7 µM | [5] 98.4 µM | [6] 9.68 µM | [7] 21.3 µM | [8] 32.7 µM | [9] 33.7 µM | [10] 9.16 µM | [11] 50.2 µM | [12] > 100 µM | [13] 23.4 µM | [14] 11.6 µM | [15] 8.55 µM | [16] 20.1 µM | [17] 69.7 µM

CC(C)(C)c1cc(OCc2nnc3sc(S)nn23)c(Cl)cc1OCc1nnc2sc(S)nn12
inactive: [1] 26.9 µM | [2] 39.6 µM | [3] 35.5 µM | [4] 18.4 µM | [5] 35 µM | [6] 23.2 µM | [7] 26.1 µM | [8] 30.4 µM | [9] 77.3 µM | [10] 33.6 µM | [11] 27.7 µM | [12] 35.2 µM | [13] 78.5 µM | [14] 28.7 µM | [15] 22.1 µM | [16] 17.3 µM | [17] 25.2 µM

COc1c(-c2ccc(O)c(O)c2)oc2c(O)c(O)cc(O)c2c1=O
inactive: [1] 66.5 µM | [2] > 100 µM | [3] > 100 µM | [4] 15.2 µM | [5] > 100 µM | [6] 24.7 µM | [7] > 100 µM | [8] 16.9 µM | [9] 49.5 µM | [10] 64.6 µM | [11] > 100 µM | [12] > 100 µM | [13] > 100 µM | [14] 60.3 µM | [15] 40.4 µM | [16] 32.1 µM | [17] 56.8 µM

CC1OC(n2cc(F)c(=O)[nH]c2=O)C(O[Si](C)(C)C(C)(C)C)C1O[Si](C)(C)C(C)(C)C (stereo not drawn)
inactive: [1] 11.9 µM | [2] 14.2 µM | [3] 14.7 µM | [4] 16.2 µM | [5] 10.7 µM | [6] 13.3 µM | [7] 14 µM | [8] 12.4 µM | [9] 14.3 µM | [10] 13.6 µM | [11] 17.7 µM | [12] 15.2 µM | [13] 12.7 µM | [14] 10.6 µM | [15] 13.9 µM | [16] 4.34 µM | [17] 15 µM
